Test results reported in US20080045499A1, “Preferential Inhibition of Presenilin-1” (Elan Pharmaceuticals, Inc., priority 2006, published 2008).
Where two headings read alike, the source gives them in different places.

Key:
[1] = biological target: T1, Presenilin-2-comprised γ-secretase (Homo sapiens, UniProt P49810); assay: Aβ1-x ELISA in Presenilin-2 transfected PS1/PS2 double knockout mouse fibroblasts; format: cell-based; conditions: for inhibition at 10 µM: compound concentration of 10 uM, estimated from the inhibition curve
T1 construct: expressed in transfected cells; host or cells: mouse fibroblasts derived from PS1/PS2 double knockout cells, pCF vector
Text: (§1) A131-x represents any Aβ peptides longer than Aβ1-23, including Aβ38, Aβ40, and Aβ42, since Aβ1-x is defined operationally by an ELISA assay using proprietary antibody mAb 266 for capture and proprietary antibody mAb 3D6 for detection. The epitope for mAb266 is Aβ16-23, and the epitope for mAb 3D6 is Aβ1-5. […] Aβ40 ELISA employed antibodies mAb 266 as capture and 2G3 (specific for Ab40) as detection, respectively. Furthermore, Aβ42 ELISA employed antibodies mAb 266 as capture and 21F12 as detection, respectively. Hybridomas producing antibodies against Aβ16-23 were generated by standard murine fusion procedures as detailed in Kohler and Milstein (Nature 256:495 1975) and U.S. Pat. No. 4,666,829 which are hereby incorporated by reference in their entireties. See also “Detailed Description” herein. Briefly, two BALB/c mice immunized with Aβ13-28 conjugated to 2C-11 (a T-cell receptor monoclonal antibody) were sacrificed and the spleens removed. Mixed splenocytes were obtained by pressing the spleens through a 30 mesh stainless steel screen. These were fused with P3X63Ag8 murine myeloma cells (aminopterin sensitive) at a fusion ratio of 10:1 in 35% polyethylene-glycol. These cells were plated out in 96 well tissue culture plates in the presence of 2×10^6 thymocytes/ml. Hybridomas were selected for by growing the cells in the presence of aminopterin poisoned Dulbecco's modified Eagle's media augmented with hypoxanthine, thymine and 10% fetal bovine serum. Hybridomas were screened for reactivity against Aβ13-28 and AAP protein via ELISA. Positive clones were sub-cloned twice. Aliquots of the clones were frozen and stored in liquid nitrogen. Supernatants from positive clones were produced in large quantities for further purification of monoclonal antibodies.
(§2) For ELISA assays, each well of 96-well ELISA plates was coated with 100 μl of 10 μg/ml 266 in Well Coating Buffer (pH 8.5) at 4 degrees overnight, and blocked with 0.25% human BSA solution at 25 degrees for 120 minutes. The plate can be used directly without wash, after removing blocking solution.
(§3) ELISA assays were performed at room temperature. Fifty μl of conditioned medium from overnight culture of transfected cells, with or without gamma secretase inhibitors, were added to each well of ELISA plates, and incubated for 1 hour. After washing plates with Tris-buffered saline (TBS) plus 0.05% Tween-20, 50 μl biotinylated 3D6 antibody at 0.5 μg/ml was added to each well and incubate for 45 minutes. […] Next, plates were washed with Tris-buffered saline (TBS) plus 0.05% Tween-20, and 50 μl substrate (1-step slow TMB-Elisa, Pierce, Woburn, Mass., USA, catalogue number: 34024) was added to each well and incubated for 15 min. Finally, substrate reactions were terminate by adding to each well 15 ul 2 NH2SO4, and OD readings were obtained on SpectraMax Plus (Molecular Devices, Sunnyvale, Calif., USA). The Aβ concentration of samples was then obtained by comparing sample OD readings to those of standards.
(§4) EC50 values were derived by curve fitting of Aβ1-x levels, for samples treated with various concentrations of gamma secretase inhibitors, with XLfit software program (IDBS, Alameda, Calif., USA). Differences in EC50 values obtained for Presenilin-1 transfected cells and Presenilin-2 transfected cells exposed to a test compound served as an indicator of differential inhibition.
(§5) Transfected mouse fibroblasts derived from the PS1/PS2 double knockout cells are grown at 37 degree under 10% CO2 in Dulbecco's modified Eagle's medium (DMEM) containing 2-10% fetal bovine serum (FBS) and 100 μg/ml penicillin/streptomycin (Pen/Strp) (Invitrogen Corporation, Carlsbad, Calif., USA).
(§6) Cell culture medium is then removed from the transfected cell lines and analyzed for Aβ1-x levels by ELISA assay, as described in Example 1. ELISA assays are performed using ELISA plates coated with the mAb 266 to capture Aβ peptides and then by detecting Aβ peptides with biotinylated mAb 3D6.

[2] = system: Presenilin-1-comprised γ-secretase relative to Presenilin-2-comprised γ-secretase; assay: PS1/PS2 selectivity: ratio of EC50 in Presenilin-2 and Presenilin-1 transfected cells; format: cell-based, human; conditions: for PS2/PS1 EC50 ratio: EC50 of Presenilin-2 transfected cells over Presenilin-1 transfected cells
Text: as §4
as §6, with “3D6. EC50 values are derived for all of the test compounds. Differences in EC50 values obtained for Presenilin-1 transfected cells and Presenilin-2 transfected cells exposed to a test compound serve as an indicator of differential inhibition.” for “3D6.”
For example, several tested compounds are sulfonamide compounds, while several are non-sulfonamide compounds. The ratio of the EC50 value obtained for Presenilin-2 transfected cells and Presenilin-1 transfected cells (indicated in the last column of Table I) indicates the degree to which the test compound is capable of preferentially inhibiting Presenilin-1. […] In Table 2, the values shown in columns A, B and C are EC50 values (nM). Where inhibition was very low, EC50 values were not generated by the program; thus EC50 values are not provided. Rather, percent of inhibition was estimated based on the inhibition curve generated by the program. Percentages indicate percentage inhibition at a compound concentration of 10 uM. […]

[3] = biological target: T2, Presenilin-1-comprised γ-secretase (Homo sapiens, UniProt P49768); assay: Aβ1-x ELISA in Presenilin-1 transfected PS1/PS2 double knockout mouse fibroblasts; format: cell-based
T2 construct: expressed in transfected cells; host or cells: mouse fibroblasts derived from PS1/PS2 double knockout cells, pCF vector
Text: as §1, §2, §3, §4, §5, §6

[4] = system: 293sw; assay: 293sw IC50 of gamma-secretase inhibitors; format: cell-based
[5] = column A, read-out: PS2 percentage inhibition, column A
[6] = column B, read-out: PS2 percentage inhibition, column B
[7] = column A, Aβ1-x, Presenilin-1 transfected cells, overnight, read-out: PS1 EC50 (nM) A
[8] = column B, Aβ1-x, Presenilin-1 transfected cells, overnight, read-out: PS1 EC50 (nM) B
[9] = column A, Aβ1-x, Presenilin-2 transfected cells, overnight, read-out: PS2 EC50* (nM) A
[10] = column B, Aβ1-x, Presenilin-2 transfected cells, overnight, read-out: PS2 EC50* (nM) B
[11] = mean values from 2 independent experiments (FIG. 11)

Row | SMILES | PS2/PS1 EC50 ratio [2] | EC50 [3, 7] [nM] | EC50 [3, 8] [nM] | IC50 [4] [nM] | EC50 [1, 9] [nM] | EC50 [1, 10] [nM] | further results
1 | COc1ccc(CN(C2CCCCNC2=O)S(=O)(=O)c2ccc(Cl)cc2)cc1OC (stereo not drawn) | ˜30 | 228 | 425 |  |  |  | inhibition at 10 µM [1, 5]: 45%; inhibition at 10 µM [1, 6]: 50%
2 | COc1ccc(CN([C@@H](CO)CC(C)C)S(=O)(=O)c2ccc(Cl)cc2)cc1OC | ˜26 | 385 | 364 | 123 |  |  | inhibition at 10 µM [1, 5]: 47%; inhibition at 10 µM [1, 6]: 48%
3 | COc1ccc(CN(C2CCCCC2C)S(=O)(=O)c2ccc(Cl)cc2)cc1OC (stereo not drawn) | 10 | 49 | 48 | 55 | 606 | 404 | 
4 | O=C1NCCCC[C@H]1N(CCCN1C(=O)c2ccccc2C1=O)S(=O)(=O)c1ccc(Cl)cc1 | >10 | 3720 | 6960 | 221 |  |  | inhibition at 10 µM [1, 5]: 28%; inhibition at 10 µM [1, 6]: 4%
5 | CCCCN([C@@H]1CCCCNC1=O)S(=O)(=O)c1ccc(Cl)cc1 | >10 | 1410 | 928 | 192 |  |  | inhibition at 10 µM [1, 5]: 26%; inhibition at 10 µM [1, 6]: 15%
6 | O=C1NCCCC[C@H]1N(Cc1cnc(N2CCCCC2)s1)S(=O)(=O)c1ccc(Cl)cc1 | ˜30 | 370 | 263 | 121 |  |  | inhibition at 10 µM [1, 5]: 47%; inhibition at 10 µM [1, 6]: 44%
7 | C/C(=C\c1ccccc1)CN([C@@H]1CCNC1=O)S(=O)(=O)c1ccc(Cl)cc1 | >10 | 2170 | 1980 | 337 |  |  | inhibition at 10 µM [1, 5]: 1%; inhibition at 10 µM [1, 6]: 0%
8 | COc1ccc(CN(C2CC(C)CCC2C)S(=O)(=O)c2ccc(Cl)cc2)cc1 (stereo not drawn) | 22 | 136 | 161 | 176 | 3000 | 3460 | 
9 | O=C1NCCCC[C@H]1N(C/C=C/c1cccnc1)S(=O)(=O)c1ccc(Cl)cc1 | 61 | 46 | 65 | 42 | 4000 | 2780 | 
10 | O=C1NCCCC[C@H]1N(Cc1ccc(Br)cc1)S(=O)(=O)CC(F)(F)F | >10 | 1280 | 686 | 308 |  |  | inhibition at 10 µM [1, 5]: 20%; inhibition at 10 µM [1, 6]: 19%
11 | CSc1ncccc1-c1nc(CN([C@@H]2CCCCNC2=O)S(=O)(=O)c2ccc(Cl)cc2)no1 | 11 | 212 | 116 | 112 | 2100 | 2580 | 
12 | CCC(C)N(C(C)CC)S(=O)(=O)c1ccc(Cl)nc1 (stereo not drawn) | 4 | 1390 | 787 | 388 | 5860 | 3320 | 
13 | C[C@H](NC(=O)c1ccc(CN([C@@H]2CCCCNC2=O)S(=O)(=O)c2ccc(Cl)cc2)cc1)c1ccccc1 | 4 | 143 | 139 |  | 465 | 777 | 
14 | C[C@@H](NC(=O)c1ccc(CN([C@@H]2CCCCNC2=O)S(=O)(=O)c2ccc(Cl)cc2)cc1)c1ccccc1 | 1.5 | 57 | 44 | 16 | 60 | 91 | 
15 | Cc1nc(-c2ccc(CN([C@@H]3CCCCNC3=O)S(=O)(=O)c3ccc(Cl)cc3)cc2)no1 | 8 | 105 | 98 | 44 | 750 | 809 | 
16 | O=C1NCCCC[C@H]1N(Cc1ccc2snnc2c1)S(=O)(=O)c1ccc(Cl)cc1 | 47 | 18 | 23 | 8 | 922 | 951 | 
17 | O=C1NCCCC[C@H]1N(Cc1ccc2nccnc2c1)S(=O)(=O)c1ccc(Cl)cc1 | 37 | 36 | 31 | 9 | 1410 | 1040 | 
18 | O=C(NCc1ccccc1)c1ccc(CN([C@@H]2CCCCNC2=O)S(=O)(=O)c2ccc(Cl)cc2)cc1 | 1.8 | 19 | 19 | 10 | 30 | 38 | 
19 | C[C@H](NC(=O)[C@@H](O)c1cc(F)cc(F)c1)C(=O)N[C@@H]1C(=O)N(C)c2ccccc2-c2ccccc21 |  |  |  | 0.064 |  |  | 
20 | COc1ccc(CN([C@H]2CCCCNC2=O)S(=O)(=O)c2ccc(Cl)cc2)cc1OC |  |  |  | 10000 |  |  | EC50 ([1]; column A, bound given in μM, read-out: PS2 EC50 A): > 10000 nM; EC50 ([1]; column B, bound given in μM, read-out: PS2 EC50 B): > 10000 nM; EC50 ([3]; column A, bound given in μM, read-out: PS1 EC50 A): > 10000 nM; EC50 ([3]; column B, bound given in μM, read-out: PS1 EC50 B): > 10000 nM
21 | O=C1NCCCC[C@H]1N(Cc1cc2ccccc2o1)S(=O)(=O)c1ccc(Cl)cc1 | 46 | 30 | 63 |  | 2420 | 1880 | EC50 ([1]; column C, Aβ1-x, Presenilin-2 transfected cells, overnight, read-out: PS2 EC50* (nM) C): 2380 nM; EC50 ([3]; column C, Aβ1-x, Presenilin-1 transfected cells, overnight, read-out: PS1 EC50 (nM) C): 50 nM
22 | C[C@H](NC(=O)Cc1cc(F)cc(F)c1)C(=O)N[C@H](C(=O)OC(C)(C)C)c1ccccc1 [DAPT, reference compound] |  |  |  |  |  |  | fold more selective for PS2 [2, 11]: 2 fold
23 | CC(C)C[C@H](NC(=O)[C@H](Cc1ccccc1)C[C@@H](O)[C@H](Cc1ccccc1)NC(=O)OC(C)(C)C)C(=O)N[C@@H](Cc1ccccc1)C(N)=O [L-685,458, reference compound] |  |  |  |  |  |  | fold more selective for PS1 [2, 11]: ~3 fold
24 | C[C@H](c1ccc(F)cc1CCCC(=O)O)N(c1cc(F)ccc1F)S(=O)(=O)c1ccc(Cl)cc1 [reference compound] | 12 | 21 | 17 |  | 223 | 247 | 
